Experimental data: PubChem BioAssay (NCI)
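GI50 = concentration required for 50% inhibition of growth. TGI marks complete inhibition of growth.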

Columns and labels:
Test in all cases: NCI tumour cell line growth inhibition, 384-well format
SK-OV-3 ovarian = test system: SK-OV-3 ovarian
HOP-92 NSCLC = test system: HOP-92 NSCLC
MDA-MB-231 breast = test system: MDA-MB-231 breast
SR leukemia = test system: SR leukemia
COLO 205 colon = test system: COLO 205 colon
HL-60(TB) leukemia = test system: HL-60(TB) leukemia
MALME-3M melanoma = test system: MALME-3M melanoma
U251 glioblastoma = test system: U251 glioblastoma
SNB-19 CNS = test system: SNB-19 CNS
M14 melanoma = test system: M14 melanoma
NCI/ADR-RES ovarian = test system: NCI/ADR-RES ovarian
786-0 renal = test system: 786-0 renal
KM12 colon = test system: KM12 colon

Compound	GI50 (SK-OV-3 ovarian)	TGI (SK-OV-3 ovarian)	GI50 (HOP-92 NSCLC)	TGI (HOP-92 NSCLC)	GI50 (MDA-MB-231 breast)	TGI (MDA-MB-231 breast)	GI50 (SR leukemia)	TGI (SR leukemia)	GI50 (COLO 205 colon)	TGI (COLO 205 colon)	GI50 (HL-60(TB) leukemia)	TGI (HL-60(TB) leukemia)	GI50 (MALME-3M melanoma)	TGI (MALME-3M melanoma)	GI50 (U251 glioblastoma)	TGI (U251 glioblastoma)	GI50 (SNB-19 CNS)	TGI (SNB-19 CNS)	GI50 (M14 melanoma)	TGI (M14 melanoma)	further results
Cc1nc2ccc(-n3ncc(C(=O)c4cc5ccccc5[nH]4)c3N)cc2[nH]1	11.3 µM	30.6 µM	10.3 µM	30.3 µM	4.8 µM	44.9 µM	0.668 µM	1.58 µM	5.86 µM	30.2 µM	2.97 µM	12.3 µM	13.1 µM	33.8 µM	6.53 µM	25.5 µM	16 µM	> 66.7 µM	12.5 µM	28.4 µM	GI50 (NCI/ADR-RES ovarian): 8.76 µM; TGI (NCI/ADR-RES ovarian): 23.8 µM; GI50 (786-0 renal): 8.85 µM; TGI (786-0 renal): 26.7 µM; GI50 (KM12 colon): 3.3 µM; TGI (KM12 colon): 12.3 µM
CC(C)n1cc(-c2ccc3c(c2)N(C)CC3)c2c(NS(=O)(=O)c3ccn(C)n3)ccnc21	> 52.6 µM	> 85.4 µM	> 62.9 µM	> 100 µM	> 68.8 µM	> 100 µM	36.5 µM	> 100 µM	> 78.9 µM	> 100 µM	33.1 µM	> 61.4 µM	> 100 µM	> 100 µM	87.1 µM	> 100 µM	> 100 µM	> 100 µM	> 100 µM	> 100 µM	GI50 (NCI/ADR-RES ovarian): 61.2 µM; TGI (NCI/ADR-RES ovarian): > 100 µM; GI50 (786-0 renal): > 100 µM; TGI (786-0 renal): > 100 µM; GI50 (KM12 colon): 78 µM; TGI (KM12 colon): > 100 µM
